Measured values reported in publication PMC3561256, “Anti-infectious and anti-inflammatory effects of peptide fragments sequentially derived from the antimicrobial peptide centrocin 1 isolated from the green sea urchin, Strongylocentrotus droebachiensis” (AMB Express, 2012).

Assays:
S. aureus (ATCC 12600) [1] = assay: Minimal microbicidal concentration (MMC99) assay; type: cell-based, Staphylococcus aureus
Description: (§1) All the synthesised peptides were tested for their in vitro microbicidal activity against S. aureus (American Type Culture Collection (ATCC) 12600) and P. aeruginosa (ATCC 15442) using a minimal microbicidal concentration (MMC) assay as previously described (Haversen et al. [2010]). Bacteria were cultured in 3.7% brain heart infusion (BHI) broth (Difco, BD Diagnostics, Franklin Lakes, NJ) on a shaker at 250 rpm overnight at 37°C. The culture was diluted 1:10 in fresh 3.7% BHI and incubated for two additional hours to reach log-phase growth. The bacteria were pelleted by centrifugation at 900 × g and suspended in 0.037% BHI to a concentration of 10^7 CFU/mL, estimated by measuring optical density at 600 nm (OD600). To investigate the influence of physiological conditions on microbicidal effect of the peptides, four different assay media were used: 0.037% BHI, 0.037% BHI supplemented with 85 or 150 mM sodium chloride (NaCl), and 50% heat inactivated simulated wound fluid (h.i. SWF) composed of a 50:50 mixture of 0.1% peptone (Oxoid, Basingstoke, UK) in 150 mM NaCl and fetal bovine serum (FBS; PAA Laboratories GmbH, Pasching, Austria), diluted two times in ultra pure water. The peptides were serially diluted by twofold steps from 200 to 1.56 mg/L in the assay media used, and 100 μL of the peptide solutions were mixed with 5 μL bacterial suspensions in a 96 well plate (Nunc, Roskilde, Denmark) and incubated at 37°C for two hours. An aliquot of 5 μL from each well was aspirated and added as drops onto blood agar plates (Columbia agar; Oxoid, Basingstoke, UK) supplemented with 5% defibrinated horse blood (Swedish National Veterinary Institute (SVA), Uppsala, Sweden), and the plates were incubated overnight at 37°C. All samples were processed as duplicates. The minimal test compound concentration causing ≥99% reduction of bacteria was defined as the MMC99. The concentration of the bacterial suspension used in the assay was confirmed by viable count estimation on blood agar plates (Oxoid).
(§2) CEN1 HC was further screened for microbicidal activity against a panel of microbial strains using the MMC99 assay, as described above, except using only two different assay media; 0.037% BHI and 50% h.i. SWF. The following microbial strains were tested for sensitivity: S. aureus (ATCC 12600), MRSA (ATCC 33591), Staphylococcus epidermidis (ATCC 12228), Streptococcus pyogenes (ATCC 12344), Propionibacterium acnes (ATCC 6919) Escherichia coli (ATCC 11775), P. aeruginosa (ATCC 15442), Klebsiella pneumoniae (Culture collection, University of Gothenburg (CCUG) 59413, clinical isolate resistant to penicillins, cephalosporins, aztreonam and carbapenems, with the reference strain ATCC 13883), Acinetobacter baumannii (CCUG 58437, clinical isolate resistant to tobramycin, trimsulfa, ciprofloxacin, cefotaxim, ceftazidim, meropenem, pipera/tazobactam, with the reference strain ATCC 19606) and the yeast strain Candida albicans (ATCC 64549). Mupirocin (GlaxoSmithKline) and fusidic acid (LEO Pharma) were used as comparative control antibiotics.

[2] = tested on: P. aeruginosa (ATCC 15442); assay: Minimal microbicidal concentration (MMC99) assay; type: cell-based, Pseudomonas aeruginosa; conditions: for MMC99, P. aeruginosa ATCC 15442, 0.037% BHI / MMC99, P. aeruginosa ATCC 15442, 50% h.i. SWF: Table 3 panel
Description: as §1, §2

MRSA (ATCC 33591) [3] = assay: Minimal microbicidal concentration (MMC99) assay; type: cell-based, methicillin-resistant S. aureus; conditions: Table 3 panel, up to 200 mg/L, duplicates, maximum of at least two independent experiments
Description: as §1
CEN1 HC was further screened for microbicidal activity against a panel of microbial strains using the MMC99 assay, as described above, except using only two different assay media; 0.037% BHI and 50% h.i. SWF. […]

[4] = tested on: Acinetobacter baumannii (CCUG 58437); assay: Minimal microbicidal concentration (MMC99) assay; type: cell-based; conditions: Table 3 panel, multiresistant clinical isolate, up to 200 mg/L, duplicates, maximum of at least two independent experiments
Description: as §1, §2

[5] = tested on: Candida albicans (ATCC 64549); assay: Minimal microbicidal concentration (MMC99) assay; type: cell-based; conditions: Table 3 panel, yeast, up to 200 mg/L, duplicates, maximum of at least two independent experiments
Description: as §1, §2

[6] = tested on: Escherichia coli (ATCC 11775); assay: Minimal microbicidal concentration (MMC99) assay; type: cell-based; conditions: Table 3 panel, up to 200 mg/L, duplicates, maximum of at least two independent experiments
Description: as §1, §2

[7] = tested on: Staphylococcus epidermidis (ATCC 12228); assay: Minimal microbicidal concentration (MMC99) assay; type: cell-based; conditions: Table 3 panel, up to 200 mg/L, duplicates, maximum of at least two independent experiments
Description: as §1, §2

[8] = tested on: Klebsiella pneumoniae (CCUG 59413); assay: Minimal microbicidal concentration (MMC99) assay; type: cell-based; conditions: Table 3 panel, multiresistant clinical isolate, up to 200 mg/L, duplicates, maximum of at least two independent experiments
Description: as §1, §2

[9] = tested on: Streptococcus pyogenes (ATCC 12344); assay: Minimal microbicidal concentration (MMC99) assay; type: cell-based; conditions: Table 3 panel, up to 200 mg/L, duplicates, maximum of at least two independent experiments
Description: as §1, §2

S. aureus (ATCC 12600) [10] = assay: In vitro multistep resistance assay (MMC99 after passages); type: cell-based, Staphylococcus aureus
Description: (§3) S. aureus (ATCC 12600) and MRSA (ATCC 33591) were cultured according to the protocol described above and diluted to 10^8 CFU/mL in 0.037% BHI as estimated by measuring OD600. The multistep resistance assay was performed as previously described (Kosowska-Shick et al. [2006]). Peptide dilutions were prepared in twofold dilution steps in the concentration range from 0.75 mg/L to 96 mg/L in a volume of 1 mL using 0.37% BHI medium. The same peptide concentration range was used during all passages and new peptide dilutions were prepared each day from stock solutions. Mupirocin (Applichem), the active substance in the conventional topical antibiotic Bactroban, was used as a comparator. The antibiotic control was handled in the same way as the peptides except that the concentration range of mupirocin was 0.003 mg/L to 3 mg/L.
(§4) An aliquot of 10 μL (10^8 CFU/mL) of the bacterial suspension was added to the peptide dilutions, to the positive antibiotic control, and to a negative control incubated without peptide, and the suspensions were incubated at 37°C for 24 h. Turbidity of the overnight cultures was determined by OD600 measurements. The OD600 of bacteria/peptide suspensions was calculated by subtracting the OD600 of the peptide mixed with medium from the OD600 measured on the overnight cultures. […]

MRSA (ATCC 33591) [11] = assay: as above; type: cell-based, methicillin-resistant S. aureus
Description: as §3, §4

[12] = tested on: Propionibacterium acnes (ATCC 6919); assay: Minimal microbicidal concentration (MMC99) assay; type: cell-based; conditions: Table 3 panel, up to 200 mg/L, duplicates, maximum of at least two independent experiments
Description: as §1, §2

[13] = Table 3 panel, up to 200 mg/L, duplicates, maximum of at least two independent experiments
[14] = up to 200 mg/L, duplicates, maximum of at least two independent experiments
[15] = after 14 days of cultivation under selection pressure, 0.37% BHI, 24 h passages
[16] = multistep resistance assay, before passaging (day 0)
[17] = Table 2 screen, medium 0.037% BHI + 85 mM NaCl, 2 h at 37°C, up to 200 mg/L, duplicates, maximum of at least two independent experiments
[18] = Table 2 screen, medium 0.037% BHI + 150 mM NaCl, 2 h at 37°C, up to 200 mg/L, duplicates, maximum of at least two independent experiments

Compound: CC(=O)O[C@H]1C[C@@]2(C)[C@@H](C[C@@H](O)[C@H]3[C@@]4(C)CC[C@@H](O)[C@@H](C)[C@@H]4CC[C@@]32C)/C1=C(\CCC=C(C)C)C(=O)O [fusidic acid]
- MMC99, S. aureus ATCC 12600, 50% h.i. SWF (S. aureus (ATCC 12600) [1]; [13]): 6.3 mg/L
- MMC99, P. aeruginosa ATCC 15442, 0.037% BHI [2, 14]: >200 mg/L
- MMC99, P. aeruginosa ATCC 15442, 50% h.i. SWF [2, 14]: >200 mg/L
- MMC99, MRSA ATCC 33591, 0.037% BHI (MRSA (ATCC 33591) [3]): 6.3 mg/L
- MMC99, MRSA ATCC 33591, 50% h.i. SWF (MRSA (ATCC 33591) [3]): 6.3 mg/L
- MMC99, A. baumannii CCUG 58437, 0.037% BHI [4]: >200 mg/L
- MMC99, A. baumannii CCUG 58437, 50% h.i. SWF [4]: >200 mg/L
- MMC99, C. albicans ATCC 64549, 0.037% BHI [5]: >200 mg/L
- MMC99, C. albicans ATCC 64549, 50% h.i. SWF [5]: >200 mg/L
- MMC99, E. coli ATCC 11775, 0.037% BHI [6]: >200 mg/L
- MMC99, E. coli ATCC 11775, 50% h.i. SWF [6]: >200 mg/L
- MMC99, S. epidermidis ATCC 12228, 0.037% BHI [7]: 6.3 mg/L
- MMC99, S. epidermidis ATCC 12228, 50% h.i. SWF [7]: 6.3 mg/L
- MMC99, K. pneumoniae CCUG 59413, 0.037% BHI [8]: >200 mg/L
- MMC99, K. pneumoniae CCUG 59413, 50% h.i. SWF [8]: >200 mg/L
- MMC99, S. pyogenes ATCC 12344, 0.037% BHI [9]: >200 mg/L
- MMC99, S. pyogenes ATCC 12344, 50% h.i. SWF [9]: >200 mg/L

Compound: C/C(=C\C(=O)OCCCCCCCCC(=O)O)C[C@@H]1OC[C@H](C[C@@H]2O[C@H]2[C@@H](C)[C@H](C)O)[C@@H](O)[C@H]1O [mupirocin, Mupirocin]
- MMC99, S. aureus ATCC 12600, 0.037% BHI (S. aureus (ATCC 12600) [1]; Table 3 panel, 0.037% BHI, up to 200 mg/L, duplicates, maximum of at least two independent experiments, comparators Bactroban 2% ointment, Fucidin 2% cream): 3.1 mg/L
- MMC99, S. aureus ATCC 12600, 50% h.i. SWF (S. aureus (ATCC 12600) [1]; [13]): 3.1 mg/L
- MMC99, P. aeruginosa ATCC 15442, 0.037% BHI [2, 14]: >200 mg/L
- MMC99, P. aeruginosa ATCC 15442, 50% h.i. SWF [2, 14]: >200 mg/L
- Concentration killing ≥99% of the bacteria (MMC99), day 14 (S. aureus (ATCC 12600) [10]; [15]): 24 mg/L
- Concentration killing ≥99% of the bacteria (MMC99), day 0 (S. aureus (ATCC 12600) [10]; [16]): 3 mg/L
- Concentration killing ≥99% of the bacteria (MMC99), day 14 (MRSA (ATCC 33591) [11]; [15]): > 384 mg/L
- Concentration killing ≥99% of the bacteria (MMC99), day 0 (MRSA (ATCC 33591) [11]; [16]): 3 mg/L
- MMC99, MRSA ATCC 33591, 0.037% BHI (MRSA (ATCC 33591) [3]): 3.1 mg/L
- MMC99, MRSA ATCC 33591, 50% h.i. SWF (MRSA (ATCC 33591) [3]): 3.1 mg/L
- MMC99, A. baumannii CCUG 58437, 0.037% BHI [4]: >200 mg/L
- MMC99, A. baumannii CCUG 58437, 50% h.i. SWF [4]: >200 mg/L
- MMC99, C. albicans ATCC 64549, 0.037% BHI [5]: >200 mg/L
- MMC99, C. albicans ATCC 64549, 50% h.i. SWF [5]: >200 mg/L
- MMC99, E. coli ATCC 11775, 0.037% BHI [6]: >200 mg/L
- MMC99, E. coli ATCC 11775, 50% h.i. SWF [6]: >200 mg/L
- MMC99, S. epidermidis ATCC 12228, 0.037% BHI [7]: 3.1 mg/L
- MMC99, S. epidermidis ATCC 12228, 50% h.i. SWF [7]: 3.1 mg/L
- MMC99, K. pneumoniae CCUG 59413, 0.037% BHI [8]: >200 mg/L
- MMC99, K. pneumoniae CCUG 59413, 50% h.i. SWF [8]: >200 mg/L
- MMC99, P. acnes ATCC 6919, 0.037% BHI ([12]; 0.037% BHI): >200 mg/L
- MMC99, P. acnes ATCC 6919, 50% h.i. SWF ([12]; 50% h.i. SWF): >200 mg/L
- MMC99, S. pyogenes ATCC 12344, 0.037% BHI [9]: 6.3 mg/L
- MMC99, S. pyogenes ATCC 12344, 50% h.i. SWF [9]: 3.1 mg/L

Compound: GW(Br)FKKTFHKVSHAVKSGIHA [CEN1 HC-Br (1–20), C-terminal truncated variant of CEN1 HC-Br]
- S. aureus MMC99, 0.037% BHI + 85 mM NaCl (S. aureus (ATCC 12600) [1]; [17]): >200 mg/L
- S. aureus MMC99, 0.037% BHI + 150 mM NaCl (S. aureus (ATCC 12600) [1]; [18]): >200 mg/L
- S. aureus MMC99, 0.037% BHI (S. aureus (ATCC 12600) [1]; Table 2 screen, medium 0.037% BHI, ≥99% reduction of bacteria, 2 h at 37°C, tested up to 200 mg/L, duplicates, maximum value from at least two independent experiments): 12.5 mg/L
- S. aureus MMC99, 0.037% BHI with 85 mM or 150 mM NaCl (S. aureus (ATCC 12600) [1]; text summary over both NaCl concentrations of Table 2a): ≥ 200 mg/L
- P. aeruginosa MMC99, 0.037% BHI + 85 mM NaCl [2, 17]: 12.5 mg/L
- P. aeruginosa MMC99, 0.037% BHI + 150 mM NaCl [2, 18]: 25 mg/L
- P. aeruginosa MMC99, 0.037% BHI ([2]; Table 2 screen, medium 0.037% BHI, 2 h at 37°C, up to 200 mg/L, duplicates, maximum of at least two independent experiments): 12.5 mg/L
- P. aeruginosa MMC99, 0.037% BHI with 85 mM or 150 mM NaCl ([2]; text summary over both NaCl concentrations of Table 2b, compared to 0.037% BHI only): 12.5 to 100.0 mg/L
